Results from ChEMBL document CHEMBL4823305, “Design, synthesis and antibacterial evaluation of novel 3-O-substituted 15-membered azalides possessing 1,2,3-triazole side chains” (2021).
Converted amounts (≈) assume the structure as drawn.

How the values were obtained:
Assay type in all cases: functional
Enterococcus faecium = experiment: Antibacterial activity against clinical isolate erythromycin-resistant Enterococcus faecium by broth microdilution method
Bacillus subtilis = experiment: Antibacterial activity against penicillin-susceptible Bacillus subtilis ATCC9372 by broth microdilution method
Staphylococcus aureus [1] = experiment: Antibacterial activity against methicillin-resistant Staphylococcus aureus ATCC43300 by broth microdilution method
Staphylococcus aureus [2] = experiment: Antibacterial activity against penicillin-resistant Staphylococcus aureus by broth microdilution method
Staphylococcus aureus [3] = experiment: Antibacterial activity against erythromycin-susceptible Staphylococcus aureus ATCC25923 by broth microdilution method
Enterococcus faecalis = experiment: Antibacterial activity against vancomycin-susceptible Enterococcus faecalis ATCC29212 by broth microdilution method
Klebsiella pneumoniae = experiment: Antibacterial activity against Klebsiella pneumoniae ATCC10031 by broth microdilution method

Row | SMILES | MIC (Enterococcus faecium) | MIC (Bacillus subtilis) | MIC (Staphylococcus aureus [1]) | MIC (Staphylococcus aureus [2]) | MIC (Staphylococcus aureus [3]) | MIC (Enterococcus faecalis) | MIC (Klebsiella pneumoniae)
1 | CC[C@H]1OC(=O)[C@H](C)[C@@H](OC(=O)NNC(=O)Cn2cc(-c3ccccc3Cl)nn2)[C@H](C)[C@@H](O[C@@H]2O[C@H](C)C[C@H](N(C)C)[C@H]2O)[C@](C)(O)C[C@@H](C)CN(C)[C@H](C)[C@H]2OC(=O)O[C@@]21C | 64 µg/mL (≈ 71.6 µM) | 64 µg/mL (≈ 71.6 µM) | 128 µg/mL (≈ 143 µM) | 256 µg/mL (≈ 286 µM) | 32 µg/mL (≈ 35.8 µM) | 64 µg/mL (≈ 71.6 µM) | 32 µg/mL (≈ 35.8 µM)
2 | CC[C@H]1OC(=O)[C@H](C)[C@@H](OC(=O)NNC(=O)Cn2cc(-c3cccc([N+](=O)[O-])c3)nn2)[C@H](C)[C@@H](O[C@@H]2O[C@H](C)C[C@H](N(C)C)[C@H]2O)[C@](C)(O)C[C@@H](C)CN(C)[C@H](C)[C@H]2OC(=O)O[C@@]21C | 128 µg/mL (≈ 141 µM) | 128 µg/mL (≈ 141 µM) | 256 µg/mL (≈ 283 µM) | 256 µg/mL (≈ 283 µM) | 64 µg/mL (≈ 70.7 µM) | 32 µg/mL (≈ 35.4 µM) | 32 µg/mL (≈ 35.4 µM)
3 | CC[C@H]1OC(=O)[C@H](C)[C@@H](O[C@H]2C[C@@](C)(OC)[C@@H](O)[C@H](C)O2)[C@H](C)[C@@H](O[C@@H]2O[C@H](C)C[C@H](N(C)C)[C@H]2O)[C@](C)(OC)C[C@@H](C)C(=O)[C@H](C)[C@@H](O)[C@]1(C)O [CLARITHROMYCIN] | 256 µg/mL (≈ 342 µM) | < 0.25 µg/mL | > 256 µg/mL | > 256 µg/mL | < 0.25 µg/mL | 1 µg/mL (≈ 1.34 µM) | 4 µg/mL (≈ 5.35 µM)
4 | CC[C@H]1OC(=O)[C@H](C)[C@@H](OC(=O)NNC(=O)Cn2cc(-c3cccc(F)c3)nn2)[C@H](C)[C@@H](O[C@@H]2O[C@H](C)C[C@H](N(C)C)[C@H]2O)[C@](C)(O)C[C@@H](C)CN(C)[C@H](C)[C@H]2OC(=O)O[C@@]21C | 128 µg/mL (≈ 146 µM) | 64 µg/mL (≈ 72.9 µM) | 256 µg/mL (≈ 292 µM) | 256 µg/mL (≈ 292 µM) | 32 µg/mL (≈ 36.4 µM) | 32 µg/mL (≈ 36.4 µM) | 64 µg/mL (≈ 72.9 µM)
5 | CCc1ccc(-c2cn(CC(=O)NNC(=O)O[C@H]3[C@H](C)[C@@H](O[C@@H]4O[C@H](C)C[C@H](N(C)C)[C@H]4O)[C@](C)(O)C[C@@H](C)CN(C)[C@H](C)[C@H]4OC(=O)O[C@]4(C)[C@@H](CC)OC(=O)[C@@H]3C)nn2)cc1 | 32 µg/mL (≈ 36 µM) | 32 µg/mL (≈ 36 µM) | 64 µg/mL (≈ 72.1 µM) | 64 µg/mL (≈ 72.1 µM) | 16 µg/mL (≈ 18 µM) | 32 µg/mL (≈ 36 µM) | 16 µg/mL (≈ 18 µM)
6 | CC[C@H]1OC(=O)[C@H](C)[C@@H](OC(=O)NNC(=O)Cn2cc(-c3cccc(C)c3)nn2)[C@H](C)[C@@H](O[C@@H]2O[C@H](C)C[C@H](N(C)C)[C@H]2O)[C@](C)(O)C[C@@H](C)CN(C)[C@H](C)[C@H]2OC(=O)O[C@@]21C | 128 µg/mL (≈ 146 µM) | 64 µg/mL (≈ 73.2 µM) | 128 µg/mL (≈ 146 µM) | 256 µg/mL (≈ 293 µM) | 64 µg/mL (≈ 73.2 µM) | 32 µg/mL (≈ 36.6 µM) | 16 µg/mL (≈ 18.3 µM)
7 | CC[C@H]1OC(=O)[C@H](C)[C@@H](OC(=O)NNC(=O)Cn2cc(-c3cccc(Br)c3)nn2)[C@H](C)[C@@H](O[C@@H]2O[C@H](C)C[C@H](N(C)C)[C@H]2O)[C@](C)(O)C[C@@H](C)CN(C)[C@H](C)[C@H]2OC(=O)O[C@@]21C | 128 µg/mL (≈ 136 µM) | 64 µg/mL (≈ 68.2 µM) | 128 µg/mL (≈ 136 µM) | 256 µg/mL (≈ 273 µM) | 64 µg/mL (≈ 68.2 µM) | 32 µg/mL (≈ 34.1 µM) | 32 µg/mL (≈ 34.1 µM)
8 | CC[C@H]1OC(=O)[C@H](C)[C@@H](OC(=O)NNC(=O)Cn2cc(-c3ccccc3OC)nn2)[C@H](C)[C@@H](O[C@@H]2O[C@H](C)C[C@H](N(C)C)[C@H]2O)[C@](C)(O)C[C@@H](C)CN(C)[C@H](C)[C@H]2OC(=O)O[C@@]21C | 128 µg/mL (≈ 144 µM) | 128 µg/mL (≈ 144 µM) | 256 µg/mL (≈ 288 µM) | 256 µg/mL (≈ 288 µM) | 64 µg/mL (≈ 71.9 µM) | 64 µg/mL (≈ 71.9 µM) | 64 µg/mL (≈ 71.9 µM)
9 | CCCOc1ccc(-c2cn(CC(=O)NNC(=O)O[C@H]3[C@H](C)[C@@H](O[C@@H]4O[C@H](C)C[C@H](N(C)C)[C@H]4O)[C@](C)(O)C[C@@H](C)CN(C)[C@H](C)[C@H]4OC(=O)O[C@]4(C)[C@@H](CC)OC(=O)[C@@H]3C)nn2)cc1 | 64 µg/mL (≈ 69.7 µM) | 32 µg/mL (≈ 34.9 µM) | 64 µg/mL (≈ 69.7 µM) | 64 µg/mL (≈ 69.7 µM) | 16 µg/mL (≈ 17.4 µM) | 16 µg/mL (≈ 17.4 µM) | 32 µg/mL (≈ 34.9 µM)
10 | CCCc1ccc(-c2cn(CC(=O)NNC(=O)O[C@H]3[C@H](C)[C@@H](O[C@@H]4O[C@H](C)C[C@H](N(C)C)[C@H]4O)[C@](C)(O)C[C@@H](C)CN(C)[C@H](C)[C@H]4OC(=O)O[C@]4(C)[C@@H](CC)OC(=O)[C@@H]3C)nn2)cc1 | 32 µg/mL (≈ 35.5 µM) | 16 µg/mL (≈ 17.7 µM) | 64 µg/mL (≈ 70.9 µM) | 64 µg/mL (≈ 70.9 µM) | 16 µg/mL (≈ 17.7 µM) | 8 µg/mL (≈ 8.87 µM) | 16 µg/mL (≈ 17.7 µM)
11 | CC[C@H]1OC(=O)[C@H](C)[C@@H](OC(=O)NNC(=O)Cn2cc(-c3ccc(OC)cc3)nn2)[C@H](C)[C@@H](O[C@@H]2O[C@H](C)C[C@H](N(C)C)[C@H]2O)[C@](C)(O)C[C@@H](C)CN(C)[C@H](C)[C@H]2OC(=O)O[C@@]21C | 128 µg/mL (≈ 144 µM) | 128 µg/mL (≈ 144 µM) | 256 µg/mL (≈ 288 µM) | 256 µg/mL (≈ 288 µM) | 64 µg/mL (≈ 71.9 µM) | 64 µg/mL (≈ 71.9 µM) | 32 µg/mL (≈ 36 µM)
12 | CC[C@H]1OC(=O)[C@H](C)[C@@H](OC(=O)NNC(=O)Cn2cc(-c3ccc(Br)cc3)nn2)[C@H](C)[C@@H](O[C@@H]2O[C@H](C)C[C@H](N(C)C)[C@H]2O)[C@](C)(O)C[C@@H](C)CN(C)[C@H](C)[C@H]2OC(=O)O[C@@]21C | 64 µg/mL (≈ 68.2 µM) | 32 µg/mL (≈ 34.1 µM) | 64 µg/mL (≈ 68.2 µM) | 128 µg/mL (≈ 136 µM) | 32 µg/mL (≈ 34.1 µM) | 32 µg/mL (≈ 34.1 µM) | 64 µg/mL (≈ 68.2 µM)
13 | CC[C@H]1OC(=O)[C@H](C)[C@@H](OC(=O)NNC(=O)Cn2cc(-c3cccc(N)c3)nn2)[C@H](C)[C@@H](O[C@@H]2O[C@H](C)C[C@H](N(C)C)[C@H]2O)[C@](C)(O)C[C@@H](C)CN(C)[C@H](C)[C@H]2OC(=O)O[C@@]21C | 128 µg/mL (≈ 146 µM) | > 128 µg/mL | > 256 µg/mL | > 256 µg/mL | 128 µg/mL (≈ 146 µM) | > 128 µg/mL | 128 µg/mL (≈ 146 µM)
14 | CC[C@H]1OC(=O)[C@H](C)[C@@H](OC(=O)NNC(=O)Cn2cc(-c3ccc(F)cc3)nn2)[C@H](C)[C@@H](O[C@@H]2O[C@H](C)C[C@H](N(C)C)[C@H]2O)[C@](C)(O)C[C@@H](C)CN(C)[C@H](C)[C@H]2OC(=O)O[C@@]21C | 128 µg/mL (≈ 146 µM) | 64 µg/mL (≈ 72.9 µM) | 256 µg/mL (≈ 292 µM) | 128 µg/mL (≈ 146 µM) | 64 µg/mL (≈ 72.9 µM) | 32 µg/mL (≈ 36.4 µM) | 64 µg/mL (≈ 72.9 µM)
15 | CC[C@H]1OC(=O)[C@H](C)[C@@H](OC(=O)NNC(=O)Cn2cc(-c3ccccc3)nn2)[C@H](C)[C@@H](O[C@@H]2O[C@H](C)C[C@H](N(C)C)[C@H]2O)[C@](C)(O)C[C@@H](C)CN(C)[C@H](C)[C@H]2OC(=O)O[C@@]21C | 64 µg/mL (≈ 74.4 µM) | 128 µg/mL (≈ 149 µM) | 256 µg/mL (≈ 298 µM) | 256 µg/mL (≈ 298 µM) | 32 µg/mL (≈ 37.2 µM) | 16 µg/mL (≈ 18.6 µM) | 32 µg/mL (≈ 37.2 µM)
16 | CC[C@H]1OC(=O)[C@H](C)[C@@H](OC(=O)NNC(=O)Cn2cc(-c3cccc(Cl)c3)nn2)[C@H](C)[C@@H](O[C@@H]2O[C@H](C)C[C@H](N(C)C)[C@H]2O)[C@](C)(O)C[C@@H](C)CN(C)[C@H](C)[C@H]2OC(=O)O[C@@]21C | 64 µg/mL (≈ 71.6 µM) | 64 µg/mL (≈ 71.6 µM) | 128 µg/mL (≈ 143 µM) | 256 µg/mL (≈ 286 µM) | 64 µg/mL (≈ 71.6 µM) | 16 µg/mL (≈ 17.9 µM) | 16 µg/mL (≈ 17.9 µM)
